# Laboratory results: the supplement of paper PMC10307832
# What was measured:
# Experiment in all cases: relative viability (nuclei count vs DMSO), 5 days (fraction); higher = more cells survive
# Trametinib + Navitoclax = compound: CC(=O)Nc1cccc(-n2c(=O)n(C3CC3)c(=O)c3c(Nc4ccc(I)cc4F)n(C)c(=O)c(C)c32)c1 [Trametinib] + CC1(C)CCC(c2ccc(Cl)cc2)=C(CN2CCN(c3ccc(C(=O)NS(=O)(=O)c4ccc(N[C@H](CCN5CCOCC5)CSc5ccccc5)c(S(=O)(=O)C(F)(F)F)c4)cc3)CC2)C1 [Navitoclax] (partner 0.5 µM)
# Procedure, shortened: (§1)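 Lung cancer cell lines were seeded in 1536-well plates and dosed by pin tool the next day, with either a single drug or a fixed anchor-drug dose combined with five library-drug doses (not always all listed) spaced in √10 steps. Five days later, one step fixed the cells and stained their nuclei (final 0.05% Triton X-100, 1% formaldehyde, 1 ug/ml Hoechst), and nuclei were counted on 4× images. Relative viability is the nuclei count in treated wells divided by the count in vehicle wells, and each value is the median of duplicate plates.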
# Trametinib + Tozasertib = compound: CC(=O)Nc1cccc(-n2c(=O)n(C3CC3)c(=O)c3c(Nc4ccc(I)cc4F)n(C)c(=O)c(C)c32)c1 [Trametinib] + Cc1cc(Nc2cc(N3CCN(C)CC3)nc(Sc3ccc(NC(=O)C4CC4)cc3)n2)n[nH]1 [Tozasertib] (partner 0.1 µM)
# Procedure, shortened: as §1
# [1] = compound: CN1C=C(C2=CC=CC=C21)/C=C\3/C4=C(C=CC=N4)NC3=O + CCNC(=O)c1noc(-c2cc(C(C)C)c(O)cc2O)c1-c1ccc(CN2CCOCC2)cc1 [Luminespib] (partner 0.01 µM)
# Procedure, shortened: as §1
# [2] = compound: CN1C=C(C2=CC=CC=C21)/C=C\3/C4=C(C=CC=N4)NC3=O + NC(=O)Nc1cc(-c2cccc(F)c2)sc1C(=O)N[C@H]1CCCNC1 [AZD7762] (partner 0.2 µM)
# Procedure, shortened: as §1
Cell Line,relative viability (Trametinib + Navitoclax; first compound 0.0025 µM),relative viability (Trametinib + Navitoclax; first compound 0.007906 µM),relative viability (Trametinib + Navitoclax; first compound 0.025 µM),relative viability (Trametinib + Navitoclax; first compound 0.07906 µM),relative viability (Trametinib + Navitoclax; first compound 0.25 µM),relative viability (Trametinib + Tozasertib; first compound 0.0025 µM),relative viability (Trametinib + Tozasertib; first compound 0.007906 µM),relative viability (Trametinib + Tozasertib; first compound 0.025 µM),relative viability (Trametinib + Tozasertib; first compound 0.07906 µM),relative viability (Trametinib + Tozasertib; first compound 0.25 µM),relative viability ([1]; first compound 0.02 µM),relative viability ([1]; first compound 0.06325 µM),relative viability ([1]; first compound 0.2 µM),relative viability ([1]; first compound 0.6325 µM),relative viability ([1]; first compound 2 µM),relative viability ([2]; first compound 0.02 µM),relative viability ([2]; first compound 0.06325 µM),relative viability ([2]; first compound 0.2 µM),relative viability ([2]; first compound 0.6325 µM),relative viability ([2]; first compound 2 µM)
NCI-H1437,1.15,0.724,0.537,0.377,0.312,0.266,0.289,0.239,0.204,0.175,1.14,1.08,1.22,1.25,1.24,1.23,1.2,1.1,1.17,1.26
NCI-H1651,1.02,0.943,0.933,0.844,0.778,0.666,0.555,0.541,0.526,0.498,0.953,0.772,1.02,1.13,1.02,0.497,0.455,0.433,0.557,0.477
NCI-H1666,0.613,0.64,0.375,0.456,0.393,0.589,0.546,0.602,0.541,0.475,1,1.04,1.05,0.99,1.04,0.896,0.79,0.826,0.742,0.871
NCI-H1734,0.865,0.736,–,0.657,0.474,0.255,0.243,0.216,0.203,0.205,0.212,0.208,–,0.203,0.866,0.521,0.537,–,0.546,0.559
NCI-H1755,0.958,0.952,0.901,0.918,0.838,0.544,0.537,0.604,0.63,0.545,0.376,0.369,0.541,0.37,0.387,0.443,0.408,0.354,0.448,0.409
NCI-H1793,0.36,0.345,0.265,0.216,0.133,0.281,0.226,0.253,0.164,0.205,0.228,0.202,0.204,0.186,0.189,0.431,0.595,0.316,0.387,0.443
NCI-H1915,0.799,0.79,0.681,0.719,0.217,0.453,0.337,0.268,0.219,0.165,0.728,0.816,0.894,0.431,0.954,0.678,0.646,0.529,0.751,0.699
NCI-H1944,0.916,0.71,0.544,0.664,0.49,0.262,0.21,0.185,0.185,0.177,0.706,0.742,–,0.767,0.897,0.442,0.471,–,0.464,0.469
NCI-H1975,0.999,1,0.713,0.466,0.395,0.716,0.703,0.478,0.338,0.29,0.0911,0.261,0.187,0.338,0.206,0.893,0.811,0.62,0.602,0.542
NCI-H1993,0.794,0.748,0.65,0.764,0.774,0.539,0.498,0.568,0.558,0.459,0.828,0.686,0.813,0.67,0.369,0.704,0.666,0.671,0.698,0.626
NCI-H2085,1.07,0.9,0.924,0.878,0.81,0.721,0.598,0.551,0.561,0.621,0.454,0.412,0.436,0.411,0.485,0.97,1.03,0.968,0.956,0.947
NCI-H2087,0.718,0.406,0.244,0.223,0.257,0.189,0.166,0.111,0.12,0.108,0.173,0.175,0.197,0.151,0.154,1.41,1.33,1.31,1.22,1.37
NCI-H2126,0.781,0.684,0.516,0.589,0.508,0.784,0.694,0.523,0.653,0.576,1,0.875,0.852,0.907,0.932,1.01,0.899,0.864,1,1
NCI-H2170,0.636,0.521,–,0.425,0.448,0.733,0.702,0.466,0.709,0.616,0.623,0.616,0.626,0.778,0.738,0.86,0.811,0.581,0.825,0.761
NCI-H2347,0.678,0.328,0.143,0.198,0.215,0.509,0.33,0.176,0.154,0.185,–,0.288,0.352,0.339,0.569,0.778,0.728,0.56,0.79,0.83
NCI-H2405,0.732,0.515,0.48,0.423,0.305,0.695,0.687,0.664,0.497,0.468,0.809,0.603,0.629,0.738,0.74,0.857,0.731,0.552,0.835,0.795
